Tests used:
[1] = AUC (0 to infinity) in Sprague-Dawley rat at 20 mg/kg, po measured upto 72 hrs by (LC-MS)/MS analysis; format: ADME, organism-based; settings: in vivo
U-87 MG [2] = experiment: Induction of cell cycle arrest in human U-87 MG cells assessed as decrease in accumulation of cells at S phase at 2 uM incubated for 48 hrs by flow cytometry (reference value: 30.36%); format: functional, U-87MG ATCC; design: scale not given: the % may be the effect or the level left
[3] = MRT (0 to infinity) in Sprague-Dawley rat at 20 mg/kg, po measured upto 72 hrs by (LC-MS)/MS analysis; format: ADME, organism-based; settings: in vivo
U-87 MG [4] = experiment: Induction of cell cycle arrest in human U-87 MG cells assessed as accumulation of cells at G0/G1 phase at 2 uM incubated for 48 hrs by flow cytometry (reference value: 60.51%); format: functional, U-87MG ATCC
[5] = In vivo antitumor activity against […] GL261 cells xenografted in C57BL/6 mouse assessed as decrease in PD-L1 expression in tumor tissue at 100 mg/kg, IG treated for 21 days relative to control; format: functional; design: scale not given: the % may be the effect or the level left; settings: time 21 day
[6] = MRT (0 to infinity) in Sprague-Dawley rat at 4 mg/kg, iv measured upto 72 hrs by (LC-MS)/MS analysis; format: ADME, organism-based; settings: in vivo
[7] = Clearance in Sprague-Dawley rat at 4 mg/kg, iv measured upto 72 hrs by (LC-MS)/MS analysis; format: ADME, organism-based; settings: in vivo
U-87 MG [8] = experiment: In vitro immunoregulatory effect in IFN-gamma stimulated human U-87 MG cells co-cultured with PHA-P stimulated with human Jurkat T cell assessed as cytotoxicity by measuring cell viability incubated for 48 hrs by CCK-8 assay relative to control; format: functional, cell-based; settings: U-87MG ATCC, dose 0.0625-0.5 µM
Glioblastoma cell line [9] = experiment: Antitumor immunity against glioblastoma bearing C57BL/6 mouse model assessed as tumor infiltrating lymphocytes by measuring increase in CD3+CD4+T cells at 100 mg/kg, IG (reference value: 0.91%); format: functional
[10] = In vivo antitumor activity against […] GL261 cells xenografted in C57BL/6 mouse assessed as decrease in tumor volume at 100 mg/kg, IG treated for 21 days relative to control; format: functional; design: scale not given: the % may be the effect or the level left; settings: time 21 day
[11] = In vivo antitumor activity against […] GL261 cells xenografted in C57BL/6 mouse assessed as tumor growth inhibition (tumor volume decrease) at 50 mg/kg, IG treated for 21 days relative to control; format: functional; settings: GL261, po, 504 h, time 21 day, read-out: TGI
Glioblastoma cell line [12] = experiment: Antitumor immunity against glioblastoma bearing C57BL/6 mouse model assessed as tumor infiltrating lymphocytes by measuring increase in CD3+CD8+T cells at 100 mg/kg, IG (reference value: 3.44%); format: functional
[13] = MRT (0 to t) in Sprague-Dawley rat at 20 mg/kg, po measured upto 72 hrs by (LC-MS)/MS analysis; format: ADME, organism-based; settings: in vivo
[14] = In vivo antitumor activity against […] GL261 cells xenografted in C57BL/6 mouse assessed as tumor growth inhibition (tumor volume decrease) at 100 mg/kg, IG treated for 21 days relative to control; format: functional; settings: GL261, po, 504 h, time 21 day, read-out: TGI

AUC(0-inf) [1]: 3240 ng·h/mL
MRT inf [3]: 17.2 h
MRT inf [6]: 12.5 h
clearance [7]: 25 mL/min/kg
MRT last at 72 h [13]: 17.5 h
SMILES: COc1cc2ncnc(Nc3cccc(Cl)c3F)c2cc1OCCCCNCc1c(OC)cc(OCc2cccc(-c3ccccc3)c2C)cc1OC
Activity (U-87 MG [2]): 16.72%
Activity (U-87 MG [4]): 73.98%
Activity [5]: ~30%
Activity (U-87 MG [8]): Dose-Dependent Effect
Activity (Glioblastoma cell line [9]): 3.74%
Activity [10]: 89.7%
inhibition in vivo at 50 mg/kg [11]: 55.8%
Activity (Glioblastoma cell line [12]): 14.6%
inhibition in vivo at 100 mg/kg [14]: 89.4%

Reference: ChEMBL document CHEMBL5506049, “Discovery of Novel Small-Molecule-Based Potential PD-L1/EGFR Dual Inhibitors with High Druggability for Glioblastoma Immunotherapy” (J Med Chem, 2024)
